The record followed here is paper PMC7960510 (Immunity, 2021).

Common to all, as to format: cell-based, human
The subject of series [1] is Jurkat cells expressing TCR2 (Jurkat-TCR2). The conditions noted are these: CD69; T2 cells pulsed with peptide, 2 μM, 18 h.
Series [2] relates to Jurkat cells expressing TCR16. The conditions noted are these: HLA-A*02:01, T2 cells pulsed with 9-mers.
A further series deals with H1395 lung cancer cells. As to the kind of experiment: Cell-mediated cytotoxicity of H1395 lung cancer cells by TCR2 primary T cells. The conditions noted are these: peptide-pulsed A*02+ H1395 cells, TMEM9-mer compared to LMP9-mer.
The subject of the next series is Jurkat-TCR15 clone. As to the kind of experiment: Stimulation of Jurkat-TCR15 clone. Conditions: HLA-A*02 context; TCR15 CDR3β […].
In series [3] the test system is primary T cells expressing TCR2. The conditions noted are these: HLA-A*02+ 293T cells overexpressing full-length protein, 1:1 ratio, 18 h.

For AMGGLLTQLAM, in series [1], the “stimulation of Jurkat-TCR2 cells (in words)” value is “stimulated Jurkat cells expressing TCR2”. The same measure, in the same setting: the value for CLGGLLTMV [LMP9-mer] was “could all stimulate the Jurkat-TCR2 cells”; that for KLGGLLTMVGV was “stimulated Jurkat cells expressing TCR2”. In the case of ALGGLLTPL [TMEM9-mer], the “stimulation of Jurkat-TCR2 cells (in words)” value in series [1] is given as “could all stimulate the Jurkat-TCR2 cells”. The “recognition by TCR16 (in words)” value in series [2] is recorded as “recognized TMEM9-mer but not the microbial antigens”. For the same molecule, the “cell-mediated cytotoxicity (in words)” value with H1395 lung cancer cells was “weaker targets for cell-mediated cytotoxicity compared to those with LMP9-mer”. Consider LLGGLLTMV [EntS9-mer], for which the “stimulation of Jurkat-TCR2 cells (in words)” value in series [1] was “could all stimulate the Jurkat-TCR2 cells”. Regarding LLGTLVAML, the “stimulation of Jurkat-TCR15 clone (in words)” value in the series on Jurkat-TCR15 clone was “also stimulated the Jurkat-TCR15 clone”.

B1: TMEM161A: full-length protein TMEM161A expressed in HLA-A*02+ 293T cells (protein, UniProt Q9NX61 1-479, looked up)
chain: MAVLGVQLVVTLLTATLMHRLAPHCSFARWLLCNGSLFRYKHPSEEELRALAGKPRPRGRKERWANGLSEEKPLSVPRDAPFQLETCPLTTVDALVLRFFLEYQWFVDFAVYSGGVYLFTEAYYYMLGPAKETNIAVFWCLLTVTFSIKMFLTVTRLYFSAEEGGERSVCLTFAFLFLLLAMLVQVVREETLELGLEPGLASMTQNLEPLLKKQGWDWALPVAKLAIRVGLAVVGSVLGAFLTFPGLRLAQTHRDALTMSEDRPMLQFLLHTSFLSPLFILWLWTKPIARDFLHQPPFGETRFSLLSDSAFDSGRLWLLVVLCLLRLAVTRPHLQAYLCLAKARVEQLRREAGRIEAREIQQRVVRVYCYVTVVSLQYLTPLILTLNCTLLLKTLGGYSWGLGPAPLLSPDPSSASAAPIGSGEDEVQQTAARIAGALGGLLTPLFLRGVLAYLIWWTAACQLLASLFGLYFHQHLAGS
modifications: full-length
B1: the “stimulation of TCR2-T cells by full-length protein (in words)” value in series [3] is “appearing to be the weakest stimulator”.
